# Data reported in US6608082B1, “Treatment of erectile dysfunction using isoquinoline compound melanocortin receptor ligands” (Lion Bioscience AG, priority 1998, dated 2003).
# Molecular target: T1, MCR-1 (Homo sapiens, UniProt Q01726)
# T1 construct: expressed in transfected cells; host or cells: HEK 293
# Experiment: Melanocortin receptor binding assay, competition with 125I-HP 467, HEK 293 cells expressing hMCR-1
# Details: displacement of 125I-HP 467 at 10 μM isoquinoline compound
# Experimental: All cell culture media and reagents were obtained from GibcoBRL (Gaithersburg Md.), except for COSMIC CALF SERUM (HyClone; Logan Utah).
# Cells were suspended in PBS, 10% COSMIC CALF SERUM and 1 mM CaCl2. Cell suspensions were prepared at a density of 2×10^4 cells/ml for HEK 293 cells expressing hMCR-3, hMCR-4 or hMCR-5, and 1×10^5 cells/ml for HEK 293 cells expressing hMCR-1. Suspensions were placed in a water bath and allowed to warm to 37° C. for 1 hr.
# Binding assays were performed in a total volume of 250 μl for HEK 293 cells. […] To each tube was added 4×10^3 HEK 293 cells expressing hMCR-3, hMCR-4 or hMCR-5, or 2×10^4 cells expressing hMCR-1. Assays were incubated for 2.5 hr at 37° C.
# GF/B filter plates were prepared by soaking for at least one hour in 5 mg/ml BSA and 10 mM CaCl2. Assays were filtered using a Brandel 96-well cell harvester (Brandel Inc.; Gaithersburg, Md.). The filters were washed four times with cold 50 mM Tris, pH 7.4, the filter plates were dehydrated for 2 hr and 35 μl of MICROSCINT was added to each well. Filter plates were counted using a Packard Topcount (Packard Instrument Co.) and data analyzed using GraphPad PRISM v2.0 (GraphPad Software Inc.; San Diego Calif.) and Microsoft EXCEL v5.0a (Microsoft Corp.; Redmond Wash.).
# To assay isoquinoline compounds, binding assays were performed in duplicate in a 96 well format. […] A 0.2 ml aliquot of suspended cells was added to each well to give the cell numbers indicate above, and the cells were incubated at 37° C. for 2.5 hr. Cells were harvested on GF/B filter plates as described above and counted.
# T1 sequence (Q01726 whole entry): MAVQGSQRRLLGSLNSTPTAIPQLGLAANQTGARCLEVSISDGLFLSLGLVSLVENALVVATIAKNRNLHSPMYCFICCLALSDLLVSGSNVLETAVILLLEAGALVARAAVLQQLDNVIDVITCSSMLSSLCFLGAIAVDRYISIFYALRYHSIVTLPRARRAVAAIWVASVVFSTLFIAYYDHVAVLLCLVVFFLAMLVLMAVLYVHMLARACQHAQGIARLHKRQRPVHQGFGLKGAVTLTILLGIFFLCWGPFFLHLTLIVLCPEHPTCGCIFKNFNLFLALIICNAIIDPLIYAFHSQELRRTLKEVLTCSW
Structure (SMILES),% Disp. MC-1 10 μM (first of duplicate),% Disp. MC-1 10 μM (second of duplicate)
NCCN1Cc2ccccc2C(CNC2CCCCC2)C1c1ccc2ccccc2n1 (stereo not drawn) [TRG 2405-22],29.7%,43.4%
NCCN1Cc2ccccc2C(CNC2CCCCC2)C1c1cccs1 (stereo not drawn) [TRG 2405-23],43%,47.8%
NCCN1Cc2ccccc2C(CNC2CCCCC2)C1c1ccc(O)c(O)c1 (stereo not drawn) [TRG 2405-25],21.6%,31.9%
NCCN1Cc2ccccc2C(CNC2CCCCC2)C1c1ccc(Cl)c(Cl)c1 (stereo not drawn) [TRG 2405-26],59.6%,64.6%
NCCN1Cc2ccccc2C(CNC2CCCCC2)C1c1ccc(F)c(F)c1 (stereo not drawn) [TRG 2405-27],52.1%,43.8%
NCCN1Cc2ccccc2C(CNC2CCCCC2)C1c1cc(O)cc(O)c1 (stereo not drawn) [TRG 2405-29],28.5%,26.2%
NCCN1Cc2ccccc2C(CNC2CCCCC2)C1c1cc(Cl)cc(Cl)c1 (stereo not drawn) [TRG 2405-30],54.7%,52.8%
COc1cc(OC)cc(C2C(CNC3CCCCC3)c3ccccc3CN2CCN)c1 (stereo not drawn) [TRG 2405-31],40.7%,48.5%
Cc1cc(C2C(CNC3CCCCC3)c3ccccc3CN2CCN)cc(C)c1O (stereo not drawn) [TRG 2405-32],10.1%,38.3%
NCCN1Cc2ccccc2C(CNC2CCCCC2)C1c1cccc(Oc2ccc(Cl)c(Cl)c2)c1 (stereo not drawn) [TRG 2405-33],54.2%,48.7%
COc1ccc(Oc2cccc(C3C(CNC4CCCCC4)c4ccccc4CN3CCN)c2)cc1 (stereo not drawn) [TRG 2405-34],55.6%,56.1%
NCCN1Cc2ccccc2C(CNC2CCCCC2)C1c1cccc(C(F)(F)F)c1 (stereo not drawn) [TRG 2405-35],54.6%,55%
NCCN1Cc2ccccc2C(CNC2CCCCC2)C1c1ccc(F)c(Br)c1 (stereo not drawn) [TRG 2405-36],51.8%,53.6%
NCCN1Cc2ccccc2C(CNC2CCCCC2)C1c1cccc(Br)c1 (stereo not drawn) [TRG 2405-37],49.7%,54.4%
NCCN1Cc2ccccc2C(CNC2CCCCC2)C1c1cccc(CN)c1 (stereo not drawn) [TRG 2405-39],23.2%,16.9%
COc1ccc(C2C(CNC3CCCCC3)c3ccccc3CN2CCN)cc1F (stereo not drawn) [TRG 2405-40],22.4%,35.5%
NCCN1Cc2ccccc2C(CNC2CCCCC2)C1c1cccc(F)c1 (stereo not drawn) [TRG 2405-41],19.6%,19.8%
NCCN1Cc2ccccc2C(CNC2CCCCC2)C1c1ccoc1 (stereo not drawn) [TRG 2405-42],43.6%,40.7%
NCCN1Cc2ccccc2C(CNC2CCCCC2)C1c1cccc(O)c1 (stereo not drawn) [TRG 2405-43],32.3%,23.1%

Structure (SMILES),% Disp. MC-1 10 μM (first of duplicate),% Disp. MC-1 10 μM (second of duplicate)
COc1cccc(C2C(CNC3CCCCC3)c3ccccc3CN2CCN)c1 (stereo not drawn) [TRG 2405-45],40.6%,31.9%
COc1ccc(C2C(CNC3CCCCC3)c3ccccc3CN2CCN)cc1C (stereo not drawn) [TRG 2405-46],46.8%,40.3%
NCCN1Cc2ccccc2C(CNC2CCCCC2)C1c1cccc([N+](=O)[O-])c1 (stereo not drawn) [TRG 2405-49],37.2%,42.4%
NCCN1Cc2ccccc2C(CNC2CCCCC2)C1c1cccc(Oc2ccccc2)c1 (stereo not drawn) [TRG 2405-50],61.9%,50.8%
NCCN1Cc2ccccc2C(CNC2CCCCC2)C1c1cccnc1 (stereo not drawn) [TRG 2405-51],30.6%,23.1%
NCCN1Cc2ccccc2C(CNC2CCCCC2)C1c1cnc2ccccc2c1 (stereo not drawn) [TRG 2405-52],42.4%,42.3%
NCCN1Cc2ccccc2C(CNC2CCCCC2)C1c1ccsc1 (stereo not drawn) [TRG 2405-53],43.3%,43.4%
CN(C)CCCOc1ccc(C2C(CNC3CCCCC3)c3ccccc3CN2CCN)cc1 (stereo not drawn) [TRG 2405-54],1.3%,9%
CN(C)c1ccc(C2C(CNC3CCCCC3)c3ccccc3CN2CCN)cc1 (stereo not drawn) [TRG 2405-55],32.6%,38.1%
CSc1ccc(C2C(CNC3CCCCC3)c3ccccc3CN2CCN)cc1 (stereo not drawn) [TRG 2405-57],17.4%,42.6%
NCCN1Cc2ccccc2C(CNC2CCCCC2)C1c1ccc(C(F)(F)F)cc1 (stereo not drawn) [TRG 2405-58],56.3%,46.6%
CCNc1ccc(C2C(CNC3CCCCC3)c3ccccc3CN2CCN)cc1 (stereo not drawn) [TRG 2405-59],34.3%,40.1%
COc1ccc(C2C(CNC3CCCCC3)c3ccccc3CN2CCN)cc1 (stereo not drawn) [TRG 2405-60],41.4%,42.4%
NCCN1Cc2ccccc2C(CNC2CCCCC2)C1c1ccc(-c2ccccc2)cc1 (stereo not drawn) [TRG 2405-61],54.7%,61.9%
NCCN1Cc2ccccc2C(CNC2CCCCC2)C1c1ccc(Br)cc1 (stereo not drawn) [TRG 2405-62],32.1%,54.3%
NCCN1Cc2ccccc2C(CNC2CCCCC2)C1c1ccc(F)cc1 (stereo not drawn) [TRG 2405-65],49.6%,33.9%
NCCN1Cc2ccccc2C(CNC2CCCCC2)C1c1ccc(O)cc1 (stereo not drawn) [TRG 2405-66],81.6%,11.3%
CC(C)c1ccc(C2C(CNC3CCCCC3)c3ccccc3CN2CCN)cc1 (stereo not drawn) [TRG 2405-67],54%,51.3%
COc1ccc(C2C(CNC3CCCCC3)c3ccccc3CN2CCN)c2ccccc12 (stereo not drawn) [TRG 2405-68],55.3%,52.3%

Structure (SMILES),% Disp. MC-1 10 μM (first of duplicate),% Disp. MC-1 10 μM (second of duplicate)
Cc1ccc(C2C(CNC3CCCCC3)c3ccccc3CN2CCN)cc1 (stereo not drawn) [TRG 2405-69],49.8%,49%
NCCN1Cc2ccccc2C(CNC2CCCCC2)C1c1ccc([N+](=O)[O-])c(O)c1 (stereo not drawn) [TRG 2405-70],19.9%,46.7%
NCCN1Cc2ccccc2C(CNC2CCCCC2)C1c1ccc([N+](=O)[O-])cc1 (stereo not drawn) [TRG 2405-71],28.2%,40%
NCCN1Cc2ccccc2C(CNC2CCCCC2)C1c1ccc(Oc2ccccc2)cc1 (stereo not drawn) [TRG 2405-72],50.1%,57.7%
CCCOc1ccc(C2C(CNC3CCCCC3)c3ccccc3CN2CCN)cc1 (stereo not drawn) [TRG 2405-73],60.1%,60.5%
NCCN1Cc2ccccc2C(CNC2CCCCC2)C1c1ccncc1 (stereo not drawn) [TRG 2405-74],35.3%,0%
NCCN1Cc2ccccc2C(CNC2CCCCC2)C1c1ccnc2ccccc12 (stereo not drawn) [TRG 2405-75],38.9%,17.6%
Cc1ccc(C2C(CNC3CCCCC3)c3ccccc3CN2CCN)s1 (stereo not drawn) [TRG 2405-78],33.3%,40.8%
Cc1ccc(C2C(CNC3CCCCC3)c3ccccc3CN2CCN)o1 (stereo not drawn) [TRG 2405-79],17.3%,26.3%
Cc1cccc(C2C(CNC3CCCCC3)c3ccccc3CN2CCN)n1 (stereo not drawn) [TRG 2405-81],0%,43.1%
NCCN1Cc2ccccc2C(CNC2CCCCC2)C1c1ccc2cccc(O)c2n1 (stereo not drawn) [TRG 2405-82],18.5%,29.6%
CCn1c2ccccc2c2cc(C3C(CNC4CCCCC4)c4ccccc4CN3CCN)ccc21 (stereo not drawn) [TRG 2405-83],39.1%,46.9%
NCCN1Cc2ccccc2C(CNC2CCCCC2)C1c1cc2c3c(c1O)CCCN3CCC2 (stereo not drawn) [TRG 2405-84],18.2%,37.5%
CS(=O)(=O)c1ccc(C2C(CNC3CCCCC3)c3ccccc3CN2CCN)cc1 (stereo not drawn) [TRG 2405-87],21.9%,22.1%
COc1ccc(C2C(CNC3CCCCC3)c3ccccc3CN2CCN)cc1S(=O)(=O)O (stereo not drawn) [TRG 2405-88],5.5%,0%
NCCN1Cc2ccccc2C(CNC2CCCCC2)C1c1ccc(Br)o1 (stereo not drawn) [TRG 2405-89],21.5%,31.2%
NCCN1Cc2ccccc2C(CNC2CCCCC2)C1c1nccs1 (stereo not drawn) [TRG 2405-90],48.4%,45.9%
CNC(CN)CN1Cc2ccccc2C(CNC2CCCCC2)C1c1ccccc1 (stereo not drawn) [TRG 2405-91],35.2%,43.9%
CNC(CN)CN1Cc2ccccc2C(CNC2CCCCC2)C1c1ccccc1O (stereo not drawn) [TRG 2405-92],57.6%,49.9%
